One may read the EC50 as the concentration at which the effect is half-maximal. Read a low EC50 as higher potency in that assay.

Entries after “also recorded” stand apart in the source; their conditions may differ. No end group written: not given here.

The target of test [1] is T1, MrgprC11 (Mus musculus, UniProt Q8CIP3).
T1 sequence (Q8CIP3 1-322): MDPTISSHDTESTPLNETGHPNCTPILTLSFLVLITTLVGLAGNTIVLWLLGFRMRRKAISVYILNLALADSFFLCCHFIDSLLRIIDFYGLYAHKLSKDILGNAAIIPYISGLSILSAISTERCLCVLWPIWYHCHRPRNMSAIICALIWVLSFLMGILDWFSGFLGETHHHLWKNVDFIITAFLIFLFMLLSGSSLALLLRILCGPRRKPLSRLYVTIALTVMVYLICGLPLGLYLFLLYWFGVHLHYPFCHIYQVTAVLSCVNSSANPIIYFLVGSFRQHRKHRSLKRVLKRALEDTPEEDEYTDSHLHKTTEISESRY
It is filed as cell-based.

The target of test [2] is human MrgprX1 (hMrgprX1) (Homo sapiens, UniProt Q96LB2). In words: cell-based. The class given is cell-based.
Test [3] has as its system hMrgprX1;Mrgpr-cluster∆−/− transgenic mouse. To be noted: in vivo.
For test [4], the system named is mice. The note with it: mouse, in vivo; cited from earlier work.

Chain of human MrgprX1 (hMrgprX1) (Q96LB2 whole entry, looked up): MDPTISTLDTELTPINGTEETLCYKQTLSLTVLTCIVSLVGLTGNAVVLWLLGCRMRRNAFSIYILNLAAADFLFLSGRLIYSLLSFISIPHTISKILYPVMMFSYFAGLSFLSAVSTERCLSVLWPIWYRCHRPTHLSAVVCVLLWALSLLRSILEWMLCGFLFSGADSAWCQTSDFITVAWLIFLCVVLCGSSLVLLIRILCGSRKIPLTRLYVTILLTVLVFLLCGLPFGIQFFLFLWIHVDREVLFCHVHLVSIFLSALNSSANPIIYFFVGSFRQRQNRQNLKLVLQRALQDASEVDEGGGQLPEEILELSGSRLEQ

HSGFLLAWSGPRNRFVRF-NH2 [CNF-Vc1]: the “Activation of MrgprC11” value in test [1] is reported as “activates”. In test [2], the “Activation of hMrgprX1” value is “activates” and the EC50 was 1800 nM. The “Itch-related scratching after intradermal cheek injection of peptide” value in test [3] was “induces significant scratching”. Moreover, in test [4], the “Behaviour of mice after intracranial injection” value is “renders mice unable to move; also recorded: hypoactive behavior”.

These data come from PMC6299835 (Toxicon : official journal of the International Society on …, 2018).
